Assay results from publication PMC6766947, “Multi-Armed 1,2,3-Selenadiazole and 1,2,3-Thiadiazole Benzene Derivatives as Novel Glyoxalase-I Inhibitors” (Molecules, 2019).

Target: T1, human recombinant Glo-I (rhGlo-I) (Homo sapiens, UniProt Q04760)
T1 construct: purchased R&D Systems
T1 sequence (Q04760 2-184 limits assumed): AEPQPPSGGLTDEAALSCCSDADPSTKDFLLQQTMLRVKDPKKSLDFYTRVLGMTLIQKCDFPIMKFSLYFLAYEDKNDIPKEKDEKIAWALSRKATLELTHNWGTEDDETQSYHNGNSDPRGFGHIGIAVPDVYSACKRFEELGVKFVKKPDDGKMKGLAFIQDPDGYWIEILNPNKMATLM
Test: In vitro Glo-I enzyme inhibition assay (UV-Vis, 240 nm)
Assay type: biochemical
Details: for IC50: rhGlo-I, triplicates, 240 nm, 200 s, 25 °C, pH 7.0–7.2
Method: A total of twelve synthesized multi-arm benzene derivatives of 1,2,3-selenadiazole and 1,2,3-thiadiazole by M. Al-Smadi et al. were selected for the present study. The in vitro inhibitory activity of the compounds against the human Glo-I enzyme was measured using double-beam UV-Vis spectrophotometer (Biotech Engineering Management Co. Ltd., UK).
The Glo-I inhibitory activity was determined as reported previously. Briefly, human recombinant Glo-I (rhGlo-I), provided by R&D Systems® Corporation, was reconstituted by dissolving 0.5 mg/mL of it in sterile, deionized water before storing at –70 °C. The tested compounds were dissolved in DMSO to 10 mM stock solution. The assay buffer was prepared by mixing 0.1 M sodium phosphate dibasic solution and 0.1 M sodium phosphate monobasic solution with a pH of 7.0–7.2. The substrate mixture was prepared by mixing a suitable volume of 0.1 M sodium phosphate assay buffer with 100 mM methylglyoxal solution and 100 mM reduced glutathione. Finally, the tested compounds were mixed with the assay buffer, substrate solution mixture, and the Glo-I enzyme in a cuvette at an appropriate tested concentration. Each compound was tested in triplicates at λmax = 240 nm for 200 s at 25 °C.

| activity relative to selenium containing counterpart (fold difference in Glo-I inhibitory activity, sulfur vs selenium analogue) | IC50 [µM] | Structure (SMILES) |
| --- | --- | --- |
| eight times more active | 2.4 ± 0.13 | c1cc(-c2csnn2)ccc1OCc1cc(COc2ccc(-c3csnn3)cc2)c(COc2ccc(-c3csnn3)cc2)cc1COc1ccc(-c2csnn2)cc1 [Compound 10] |
| – | 3 ± 0.15 | c1c(COc2ccc(-c3csnn3)cc2)cc(COc2ccc(-c3csnn3)cc2)cc1COc1ccc(-c2csnn2)cc1 [Compound 8] |
| – | 2.67 ± 0.31 | c1cc(-c2csnn2)ccc1OCc1c(COc2ccc(-c3csnn3)cc2)c(COc2ccc(-c3csnn3)cc2)c(COc2ccc(-c3csnn3)cc2)c(COc2ccc(-c3csnn3)cc2)c1COc1ccc(-c2csnn2)cc1 [Compound 12] |

| Structure (SMILES) | activity relative to selenium containing counterpart (fold difference in Glo-I inhibitory activity, sulfur vs selenium analogue) | IC50 [µM] |
| --- | --- | --- |
| c1cc(-c2c[se]nn2)ccc1OCc1c(COc2ccc(-c3c[se]nn3)cc2)c(COc2ccc(-c3c[se]nn3)cc2)c(COc2ccc(-c3c[se]nn3)cc2)c(COc2ccc(-c3c[se]nn3)cc2)c1COc1ccc(-c2c[se]nn2)cc1 [Compound 11] | – | 8.3 ± 0.56 |
